Reference: patent US12630600B2 (MEDIMMUNE LIMITED, priority 2022, dated 2026)
Starred links: 1 amine or outer side, 2 acyl side, 3 side chain; linkers in the order of their positions; H or OH if unused. Non-standard residues stand in square brackets, D forms with d. Residues, ends and D or L forms follow the SMILES beside them. Groups on a side chain read outwards from the residue. *: point of attachment. C20 diacid = O=C(O)CCCCCCCCCCCCCCCCCCC(=O)*; C18 diacid = O=C(O)CCCCCCCCCCCCCCCCC(=O)*; γGlu = O=C(O)[C@H](CCC(=O)[*:2])N[*:1]; αMeF = C[C@](N)(Cc1ccccc1)C(=O)O; PEG2 = NCCOCCOCCC(=O)O; AEEA = NCCOCCOCC(=O)O; Aib = CC(C)(N)C(=O)O

Molecular target: T1, human GLP-1 receptor (hGLP-1R) (Homo sapiens, UniProt P43220)
T1 construct: expressed in transfected cells; host or cells: CHO
Test: cAMP production (HTRF) in CHO cells expressing human GLP-1 receptor
Type: cell-based
Conditions: % GLP-1R activity relative to GLP-1 / % GlucR activity relative to glucagon
Experimental: Cells were re-suspended in assay buffer at a batch-dependent optimized concentration (typically hGLP-1R cells at 1×10^5 cells/mL, hGCGR cells at 2×10^5 cells/mL).
Cells were added to the assay plate using a multidrop dispenser and incubated at room temperature for 30 minutes before measuring the cAMP level using a cAMP dynamic 2 homogeneous time resolved Fluorescence (HTRF) kit (Cisbio Bioassays #62AM4PEJ) following the two-step protocol as per manufacturer's recommendations. In brief, anti-cAMP cryptate (donor fluorophore) and cAMP-d2 (acceptor fluorophore) were made up separately by diluting each 1 in 20 in conjugate and lysis buffer provided in the kit. Anti-cAMP cryptate was added to all wells of the assay plate, followed by cAMP-d2 added to all wells except non-specific binding (NSB) wells (to which conjugate and lysis buffer was added).
Data was transformed to % Delta F as described in the manufacturer's guidelines and analyzed by 4-parameter logistic fit to determine EC50 values.

T1 sequence (P43220 24-463): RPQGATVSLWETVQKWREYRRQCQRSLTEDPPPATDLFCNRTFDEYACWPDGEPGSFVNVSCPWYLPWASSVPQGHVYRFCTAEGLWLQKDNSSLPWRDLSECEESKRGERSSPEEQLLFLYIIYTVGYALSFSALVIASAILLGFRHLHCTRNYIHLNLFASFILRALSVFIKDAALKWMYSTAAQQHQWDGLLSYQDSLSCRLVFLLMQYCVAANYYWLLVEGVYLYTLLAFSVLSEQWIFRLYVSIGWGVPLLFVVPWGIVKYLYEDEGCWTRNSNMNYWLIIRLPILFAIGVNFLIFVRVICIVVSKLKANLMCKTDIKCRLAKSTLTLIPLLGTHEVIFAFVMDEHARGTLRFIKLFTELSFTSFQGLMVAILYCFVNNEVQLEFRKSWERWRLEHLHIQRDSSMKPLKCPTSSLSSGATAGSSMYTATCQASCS

Compound | % Relative Potency Ratio (Table 8) | also measured
CC[C@H](C)[C@H](NC(=O)[C@H](Cc1c[nH]c2ccccc12)NC(=O)[C@H](CCCCNC(=O)COCCOCCNC(=O)COCCOCCNC(=O)CC[C@H](NC(=O)CC[C@H](NC(=O)CCCCCCCCCCCCCCCCC(=O)O)C(=O)O)C(=O)O)NC(=O)[C@@H](NC(=O)[C@](C)(Cc1ccccc1)NC(=O)[C@H](CC(=O)O)NC(=O)[C@H](CCC(N)=O)NC(=O)[C@H](C)NC(=O)[C@H](C)NC(=O)[C@H](CCCNC(=N)N)NC(=O)[C@H](CO)NC(=O)[C@H](CC(=O)O)NC(=O)[C@H](CC(C)C)NC(=O)[C@](C)(Cc1ccccc1)NC(=O)[C@H](CCCCN)NC(=O)[C@H](CO)NC(=O)[C@@H](NC(=O)[C@H](CC(=O)O)NC(=O)[C@H](CO)NC(=O)[C@@H](NC(=O)[C@](C)(Cc1ccccc1)NC(=O)[C@H](CO)NC(=O)CNC(=O)[C@H](Cc1c[nH]cn1)NC(=O)C(C)(C)NC(=O)[C@@H](N)Cc1c[nH]cn1)[C@@H](C)O)C(C)C)C(C)C)C(=O)N[C@@H](C)C(=O)N[C@@H](CC(N)=O)C(=O)N[C@H](C(N)=O)[C@@H](C)O [Peptide 371] (H-H[Aib]HGS[αMeF]TSDVSK[αMeF]LDSRAAQD[αMeF]VK([AEEA-AEEA-γGlu-γGlu-C18 diacid])WIANT-NH2; N-terminus assumed) | 0.9 | 
CC[C@H](C)[C@H](NC(=O)[C@H](Cc1c[nH]c2ccccc12)NC(=O)[C@H](CCCCNC(=O)CCOCCOCCNC(=O)CCOCCOCCNC(=O)CC[C@H](NC(=O)CC[C@H](NC(=O)CCCCCCCCCCCCCCCCCCC(=O)O)C(=O)O)C(=O)O)NC(=O)[C@@H](NC(=O)[C@H](Cc1ccccc1)NC(=O)[C@H](CC(=O)O)NC(=O)[C@H](CCC(N)=O)NC(=O)[C@H](C)NC(=O)[C@H](C)NC(=O)[C@H](CCC(N)=O)NC(=O)[C@H](CO)NC(=O)[C@H](CC(=O)O)NC(=O)[C@H](CC(C)C)NC(=O)[C@](C)(Cc1ccccc1)NC(=O)[C@H](CCCCN)NC(=O)[C@H](CO)NC(=O)[C@@H](NC(=O)[C@H](CC(=O)O)NC(=O)[C@H](CO)NC(=O)[C@@H](NC(=O)[C@](C)(Cc1ccccc1)NC(=O)[C@H](CO)NC(=O)CNC(=O)[C@H](Cc1c[nH]cn1)NC(=O)C(C)(C)NC(=O)[C@@H](N)Cc1c[nH]cn1)[C@@H](C)O)C(C)C)C(C)C)C(=O)N[C@@H](C)C(=O)N[C@@H](CC(N)=O)C(=O)N[C@H](C(N)=O)[C@@H](C)O [Peptide 355] (H-H[Aib]HGS[αMeF]TSDVSK[αMeF]LDSQAAQDFVK([PEG2-PEG2-γGlu-γGlu-C20 diacid])WIANT-NH2; N-terminus assumed) | 2.2 | 
CC[C@H](C)[C@H](NC(=O)[C@H](Cc1c[nH]c2ccccc12)NC(=O)[C@H](CCCCNC(=O)COCCOCCNC(=O)COCCOCCNC(=O)CC[C@H](NC(=O)CCCCCCCCCCCCCCCCCCC(=O)O)C(=O)O)NC(=O)[C@@H](NC(=O)[C@H](Cc1ccccc1)NC(=O)[C@H](CC(=O)O)NC(=O)[C@H](CCC(N)=O)NC(=O)[C@H](C)NC(=O)[C@H](C)NC(=O)[C@H](CCC(N)=O)NC(=O)[C@H](CO)NC(=O)[C@H](CC(=O)O)NC(=O)[C@H](CC(C)C)NC(=O)[C@](C)(Cc1ccccc1)NC(=O)[C@H](CCCCN)NC(=O)[C@H](CO)NC(=O)[C@@H](NC(=O)[C@H](CC(=O)O)NC(=O)[C@H](CO)NC(=O)[C@@H](NC(=O)[C@](C)(Cc1ccccc1)NC(=O)[C@H](CO)NC(=O)CNC(=O)[C@H](Cc1c[nH]cn1)NC(=O)C(C)(C)NC(=O)[C@@H](N)Cc1c[nH]cn1)[C@@H](C)O)C(C)C)C(C)C)C(=O)N[C@@H](C)C(=O)N[C@@H](CC(N)=O)C(=O)N[C@H](C(N)=O)[C@@H](C)O [Peptide 356] (H-H[Aib]HGS[αMeF]TSDVSK[αMeF]LDSQAAQDFVK([AEEA-AEEA-γGlu-C20 diacid])WIANT-NH2) | 2.1 | 
CC[C@H](C)[C@H](NC(=O)[C@H](Cc1c[nH]c2ccccc12)NC(=O)[C@H](CCCCNC(=O)COCCOCCNC(=O)COCCOCCNC(=O)CC[C@H](NC(=O)CCCCCCCCCCCCCCCCC(=O)O)C(=O)O)NC(=O)[C@@H](NC(=O)[C@](C)(Cc1ccccc1)NC(=O)[C@H](CC(=O)O)NC(=O)[C@H](CCC(N)=O)NC(=O)[C@H](C)NC(=O)[C@H](C)NC(=O)[C@H](CCC(N)=O)NC(=O)[C@H](CO)NC(=O)[C@H](CC(=O)O)NC(=O)[C@H](CC(C)C)NC(=O)[C@](C)(Cc1ccccc1)NC(=O)[C@H](CCCCN)NC(=O)[C@H](CO)NC(=O)[C@@H](NC(=O)[C@H](CC(=O)O)NC(=O)[C@H](CO)NC(=O)[C@@H](NC(=O)[C@](C)(Cc1ccccc1)NC(=O)[C@H](CO)NC(=O)CNC(=O)[C@H](Cc1c[nH]cn1)NC(=O)C(C)(C)NC(=O)[C@@H](N)Cc1c[nH]cn1)[C@@H](C)O)C(C)C)C(C)C)C(=O)N[C@@H](C)C(=O)N[C@@H](CC(N)=O)C(=O)N[C@H](C(N)=O)[C@@H](C)O [Peptide 370] (H-H[Aib]HGS[αMeF]TSDVSK[αMeF]LDSQAAQD[αMeF]VK([AEEA-AEEA-γGlu-C18 diacid])WIANT-NH2; N-terminus assumed) | 1.1 | 
H(Aib)HGS(αMePhe)TSDK(O2OC-O2OC-γE-γE-C20diacid)10SK(αMePhe)LDSRAAQD(αMePhe)VQ(Aib)IANT-amide [Peptide 391] |  | % Relative Potency Ratio (Table 9): 49.1
H(Aib)HGS(αMePhe)TSDVSKK(O2OC-O2OC-γE-C18diacid)13LDSRAAQD(αMePhe)VQ(Aib)IANT-amide [Peptide 406] |  | % Relative Potency Ratio (Table 10): 31.6
CC[C@H](C)[C@H](NC(=O)[C@H](Cc1c[nH]c2ccccc12)NC(=O)[C@H](CCCCNC(=O)COCCOCCNC(=O)COCCOCCNC(=O)CC[C@H](NC(=O)CCCCCCCCCCCCCCCCCCC(=O)O)C(=O)O)NC(=O)[C@@H](NC(=O)[C@H](Cc1ccccc1)NC(=O)[C@H](CC(=O)O)NC(=O)[C@H](CCC(N)=O)NC(=O)[C@H](C)NC(=O)[C@H](C)NC(=O)[C@H](CCCNC(=N)N)NC(=O)[C@H](CO)NC(=O)[C@H](CC(=O)O)NC(=O)[C@H](CC(C)C)NC(=O)[C@](C)(Cc1ccccc1)NC(=O)[C@H](CCCCN)NC(=O)[C@H](CO)NC(=O)[C@@H](NC(=O)[C@H](CC(=O)O)NC(=O)[C@H](CO)NC(=O)[C@@H](NC(=O)[C@](C)(Cc1ccccc1)NC(=O)[C@H](CO)NC(=O)CNC(=O)[C@H](Cc1c[nH]cn1)NC(=O)C(C)(C)NC(=O)[C@@H](N)Cc1c[nH]cn1)[C@@H](C)O)C(C)C)C(C)C)C(=O)N[C@@H](C)C(=O)N[C@@H](CC(N)=O)C(=O)N[C@H](C(N)=O)[C@@H](C)O [Peptide 367] (H-H[Aib]HGS[αMeF]TSDVSK[αMeF]LDSRAAQDFVK([AEEA-AEEA-γGlu-C20 diacid])WIANT-NH2; N-terminus assumed) | 1.0 | 
CC[C@H](C)[C@H](NC(=O)C(C)(C)NC(=O)[C@H](CCCCNC(=O)COCCOCCNC(=O)COCCOCCNC(=O)CC[C@H](NC(=O)CCCCCCCCCCCCCCCCCCC(=O)O)C(=O)O)NC(=O)[C@@H](NC(=O)[C@H](Cc1ccccc1)NC(=O)[C@H](CC(=O)O)NC(=O)[C@H](CCC(N)=O)NC(=O)[C@H](C)NC(=O)[C@H](C)NC(=O)[C@H](CCCNC(=N)N)NC(=O)[C@H](CO)NC(=O)[C@H](CC(=O)O)NC(=O)[C@H](CC(C)C)NC(=O)[C@](C)(Cc1ccccc1)NC(=O)[C@H](CCCCN)NC(=O)[C@H](CO)NC(=O)[C@@H](NC(=O)[C@H](CC(=O)O)NC(=O)[C@H](CO)NC(=O)[C@@H](NC(=O)[C@](C)(Cc1ccccc1)NC(=O)[C@H](CO)NC(=O)CNC(=O)[C@H](Cc1c[nH]cn1)NC(=O)C(C)(C)NC(=O)[C@@H](N)Cc1c[nH]cn1)[C@@H](C)O)C(C)C)C(C)C)C(=O)N[C@@H](C)C(=O)N[C@@H](CC(N)=O)C(=O)N[C@H](C(N)=O)[C@@H](C)O [Peptide 369] (H-H[Aib]HGS[αMeF]TSDVSK[αMeF]LDSRAAQDFVK([AEEA-AEEA-γGlu-C20 diacid])[Aib]IANT-NH2) | 3.8 | 
